In patent US7786141B2 (Vertex Pharmaceuticals Incorporated, priority 2004, dated 2010):
Like-named read-outs stand apart in the source and are kept apart here.

What was measured:
[1] = molecular target: T1, M4 muscarinic receptor (Homo sapiens, UniProt P08173); assay: Functional mobilization of intracellular calcium (FLIPR) in M4-CHO cells; type: cell-based
T1 construct: expressed in transfected cells; host or cells: CHO (M4-CHO)
T1 sequence (P08173 1-479): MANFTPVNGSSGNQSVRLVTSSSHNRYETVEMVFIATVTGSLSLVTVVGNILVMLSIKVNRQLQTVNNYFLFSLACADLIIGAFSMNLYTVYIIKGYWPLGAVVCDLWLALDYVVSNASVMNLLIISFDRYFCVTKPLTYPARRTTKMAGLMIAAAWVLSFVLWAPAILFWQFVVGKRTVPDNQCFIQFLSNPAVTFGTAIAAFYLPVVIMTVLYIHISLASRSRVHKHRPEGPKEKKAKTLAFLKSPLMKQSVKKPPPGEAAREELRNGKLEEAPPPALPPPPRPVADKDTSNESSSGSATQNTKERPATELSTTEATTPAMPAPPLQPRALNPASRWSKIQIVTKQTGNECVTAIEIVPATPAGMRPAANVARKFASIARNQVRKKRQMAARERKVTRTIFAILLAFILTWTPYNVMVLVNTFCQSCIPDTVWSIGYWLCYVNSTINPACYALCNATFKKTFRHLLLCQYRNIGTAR
How it was run: (§1)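 Two modes: direct compound addition for agonism, or 15 min compound pre-incubation (or co-application) before carbachol at EC80 for inhibition. Calcium signal from Fluo-3 AM or Calcium 3 dye in CHO cells, 1 mM probenecid, pH 7.4, read 60 sec at 488/540 nm; DMSO 0.5% final.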

[2] = molecular target: T2, M1 muscarinic receptor (Homo sapiens, UniProt P11229); assay: Functional mobilization of intracellular calcium (FLIPR) in M1-CHO cells; type: cell-based
T2 construct: expressed in transfected cells; host or cells: CHO (M1-CHO)
T2 sequence (P11229 1-460): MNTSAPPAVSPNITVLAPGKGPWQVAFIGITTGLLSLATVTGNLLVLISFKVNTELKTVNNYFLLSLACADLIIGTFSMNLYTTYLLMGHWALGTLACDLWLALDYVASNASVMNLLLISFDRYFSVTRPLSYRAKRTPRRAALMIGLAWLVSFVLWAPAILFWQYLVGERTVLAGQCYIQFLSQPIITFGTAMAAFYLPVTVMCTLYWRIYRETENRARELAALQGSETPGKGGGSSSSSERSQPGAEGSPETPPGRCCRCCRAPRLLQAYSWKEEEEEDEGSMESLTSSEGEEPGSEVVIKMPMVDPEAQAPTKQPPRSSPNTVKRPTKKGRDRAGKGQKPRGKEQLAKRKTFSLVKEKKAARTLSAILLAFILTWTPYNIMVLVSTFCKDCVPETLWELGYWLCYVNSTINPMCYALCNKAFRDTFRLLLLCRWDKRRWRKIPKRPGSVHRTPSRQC
How it was run: as §1

[3] = Table 4, 100% efficacy is the maximum response obtained with the Carbachol control
[4] = Table 4, modulating M4 receptor
[5] = Table 4, modulating M1 receptor
[6] = M4 receptor, calcium mobilization
[7] = M4 receptor, calcium mobilization, read-out: M4 Efficacy
[8] = M1 receptor, calcium mobilization
[9] = M1 receptor, calcium mobilization, read-out: M1 Efficacy
[10] = Table 4, M4 receptor, calcium mobilization (FLIPR)
[11] = Table 4, M1 receptor, calcium mobilization (FLIPR)
[12] = M4-CHO cells, calcium mobilization (FLIPR)
[13] = M4-CHO cells, calcium mobilization (FLIPR), read-out: M4 Efficacy
[14] = M1-CHO cells, calcium mobilization (FLIPR)
[15] = M1-CHO cells, calcium mobilization (FLIPR), read-out: M1 Efficacy

SMILES	Emax [1, 3] [%]	M4 Activity [1, 4]	Emax [2, 3] [%]	M1 Activity [2, 5]	M4 Activity [1, 6]	Emax [1, 7] [%]	M1 Activity [2, 8]	Emax [2, 9] [%]	also measured
CN(C)C(=O)N[C@H]1CC2(CCN(CCC3CC4CC[C@@H]3C4)CC2)c2ccccc21 (stereo partly drawn) [compound 687]	< 25	x (activity was measured to be greater than 5.0 μM)	< 25	x (activity was measured to be greater than 5.0 μM)	–	–	–	–	–
CN([C@H]1CC2(CCN(C[C@H]3C[C@H]4CC[C@H]3C4)CC2)c2ccccc21)S(C)(=O)=O [compound 357]	–	–	–	–	x (activity was measured to be greater than 1.0 μM)	< 65	xx (activity was measured to be between 0.1 μM and 1.0 μM)	< 65	–
CN(C)C(=O)N1CC2(CCN(C3CCCN(C(=O)OCCF)CC3)CC2)c2cc(F)ccc21 (stereo not drawn) [compound 772]	25 to 100	xxx (activity was measured to be less than 2.0 μM)	25 to 100	xxx (activity was measured to be less than 2.0 μM)	–	–	–	–	–
C#CCCOC(=O)N1CCC(N2CCC3(CC2)CN(C(C)=O)c2ccc(F)cc23)CC1 [compound 62]	–	–	–	–	xx (activity was measured to be between 0.1 μM and 1.0 μM)	65 to 85	xxx (activity was measured to be less than 0.1 μM)	< 65	–
CCCOC(=O)N1CCCC(N2CCC3(CC2)CN(C(=O)N(C)C)c2ccc(F)cc23)CC1 (stereo not drawn) [compound 749]	25 to 100	xxx (activity was measured to be less than 2.0 μM)	25 to 100	xxx (activity was measured to be less than 2.0 μM)	–	–	–	–	–
CCOC1CCCCC1N1CCC2(CC1)CN(C(C)=O)c1ccc(F)cc12 (stereo not drawn) [compound 849]	< 25	–	< 25	–	–	–	–	–	M4 Activity [1, 10]: x (activity was measured to be greater than 5.0 μM); M1 Activity [2, 11]: x (activity was measured to be greater than 5.0 μM)
CC(=O)CN1CCC(N2CCC3(CC2)CN(C(C)=O)c2ccc(F)cc23)CC1 [compound 697]	< 25	x (activity was measured to be greater than 5.0 μM)	25 to 100	x (activity was measured to be greater than 5.0 μM)	–	–	–	–	–
CC(=O)N[C@H]1CCC2(CCN(C3CC(C)(C)CC(C)(C)C3)CC2)c2ccccc21 [compound 504]	< 25	x (activity was measured to be greater than 5.0 μM)	< 25	x (activity was measured to be greater than 5.0 μM)	–	–	–	–	–
c1ccc2c(c1)NCC21CCN(CC2CCCCC2)CC1 [compound 342]	–	–	–	–	xx (activity was measured to be between 0.1 μM and 1.0 μM)	65 to 85	xxx (activity was measured to be less than 0.1 μM)	65 to 85	–
CC(=O)N1CC2(CCN(C3CCN(c4cncc(-c5ccccc5F)n4)CC3)CC2)c2ccccc21 [compound 461]	< 25	x (activity was measured to be greater than 5.0 μM)	25 to 100	xx (activity was measured to be between 2.0 μM and 5.0 μM)	–	–	–	–	–
CCOC(=O)N1C2CCC1CC(N1CCC3(CC1)CN(C(=O)C(C)C)c1ccc(F)cc13)C2 (stereo not drawn) [compound 390]	–	–	–	–	–	–	–	–	EC50 [1, 12]: > 1000 nM; Emax [1, 13]: < 65%; EC50 [2, 14]: < 100 nM; Emax [2, 15]: 65 to 85%
CCOC(=O)N1CCC(N2CCC3(CC2)CN(C(=O)OCC(C)(C)C)c2ccc(F)cc23)CC1 [compound 63]	–	–	–	–	x (activity was measured to be greater than 1.0 μM)	< 65	xxx (activity was measured to be less than 0.1 μM)	< 65	–
CCCOC(=O)N1CC[C@@H](CN2CCC3(CC2)CN(C(=O)N(C)C)c2ccc(F)cc23)C1 [compound 706]	25 to 100	xxx (activity was measured to be less than 2.0 μM)	25 to 100	xxx (activity was measured to be less than 2.0 μM)	–	–	–	–	–
c1ccc2c(c1)NCC21CCN(CC2CC3CCC2C3)CC1 (stereo not drawn) [compound 110]	–	–	–	–	xx (activity was measured to be between 0.1 μM and 1.0 μM)	< 65	xxx (activity was measured to be less than 0.1 μM)	< 65	–
CCOC(=O)N1CCC(N2CCC3(CC2)CN(C(C)=O)c2ccc(-c4ccccc4OC)cc23)CC1 [compound 150]	–	–	–	–	x (activity was measured to be greater than 1.0 μM)	> 85	xxx (activity was measured to be less than 0.1 μM)	65 to 85	–
CCOC(=O)N1CCC(N2CCC3(CC2)CN(C(C)=O)c2c(Br)cccc23)CC1 [compound 995]	25 to 100	–	25 to 100	–	–	–	–	–	M4 Activity [1, 10]: xx (activity was measured to be between 2.0 μM and 5.0 μM); M1 Activity [2, 11]: x (activity was measured to be greater than 5.0 μM)
Clc1ccc2c(c1)C1(CCO2)CCN(C[C@H]2C[C@H]3C=C[C@H]2C3)CC1 [compound 64]	–	–	–	–	xx (activity was measured to be between 0.1 μM and 1.0 μM)	< 65	xxx (activity was measured to be less than 0.1 μM)	< 65	–
COCCOC(=O)N1CCC(N2CCC3(CC2)CN(C(=O)N(C)C)c2ccc(F)cc23)CC1 [compound 265]	–	–	–	–	xx (activity was measured to be between 0.1 μM and 1.0 μM)	< 65	xx (activity was measured to be between 0.1 μM and 1.0 μM)	< 65	–
CC#CCOC(=O)N1CCC(N2CCC3(CC2)CN(C(C)=O)c2ccc(F)cc23)CC1 [compound 102]	–	–	–	–	xx (activity was measured to be between 0.1 μM and 1.0 μM)	65 to 85	xxx (activity was measured to be less than 0.1 μM)	65 to 85	–
COCCOC(=O)N1CCCC(N2CCC3(CC2)CN(C(C)=O)c2ccc(F)cc23)CC1 (stereo not drawn) [compound 65]	–	–	–	–	x (activity was measured to be greater than 1.0 μM)	< 65	xx (activity was measured to be between 0.1 μM and 1.0 μM)	65 to 85	–
CC(=O)N[C@H]1CCC2(CCN(CCC3CCN(C(C)=O)CC3)CC2)c2ccccc21 [compound 832]	–	–	–	–	–	–	–	–	M4 Efficacy [1, 3]: xx (efficacy was calculated to be between 100% and 25%); M4 Activity [1, 10]: xxx (activity was measured to be less than 2.0 μM); M1 Efficacy [2, 3]: xx (efficacy was calculated to be between 100% and 25%); M1 Activity [2, 11]: xxx (activity was measured to be less than 2.0 μM)
CC(C)OC(=O)N1C2CCC1CC(N1CCC3(CC1)CN(C(=O)O[C@@H]1CCOC1)c1ccc(F)cc13)C2 (stereo partly drawn) [compound 361]	–	–	–	–	x (activity was measured to be greater than 1.0 μM)	< 65	xx (activity was measured to be between 0.1 μM and 1.0 μM)	< 65	–
CCOC(=O)N1CCC(N2CCC3(CC2)C[C@@H](NC(C)=O)c2ccccc23)CC1 [compound 430]	–	–	–	–	–	–	–	–	EC50 [1, 12]: > 1000 nM; Emax [1, 13]: < 65%; EC50 [2, 14]: 100 to 1000 nM; Emax [2, 15]: < 65%
CCCOC(=O)N1CCC(N2CCC3(CC2)CN(C(C)=O)c2ccc(F)cc23)C1 (stereo not drawn) [compound 632]	< 25	x (activity was measured to be greater than 5.0 μM)	< 25	x (activity was measured to be greater than 5.0 μM)	–	–	–	–	–
CCCC1CCC(N2CCC3(CC2)CNc2ccc(F)cc23)CC1 (stereo not drawn) [compound 328]	–	–	–	–	x (activity was measured to be greater than 1.0 μM)	65 to 85	xx (activity was measured to be between 0.1 μM and 1.0 μM)	< 65	–
CCNC(=O)N1C2CCC1CC(N1CCC3(CC1)COc1ccc(F)cc13)C2 (stereo not drawn) [compound 219]	–	–	–	–	x (activity was measured to be greater than 1.0 μM)	< 65	x (activity was measured to be greater than 1.0 μM)	65 to 85	–
CC(=O)N[C@H]1CC2(CCN(C3CCN(C)CC3)CC2)c2ccccc21 [compound 703]	< 25	x (activity was measured to be greater than 5.0 μM)	< 25	x (activity was measured to be greater than 5.0 μM)	–	–	–	–	–
